Measurements as given in BindingDB's records for doi:10.1021/acs.biochem.5b00135 (Northwestern University, 2015).

Molecular target: T1, Nitric oxide synthase, inducible (Mus musculus, UniProt P29477)
T1 sequence (P29477 whole entry): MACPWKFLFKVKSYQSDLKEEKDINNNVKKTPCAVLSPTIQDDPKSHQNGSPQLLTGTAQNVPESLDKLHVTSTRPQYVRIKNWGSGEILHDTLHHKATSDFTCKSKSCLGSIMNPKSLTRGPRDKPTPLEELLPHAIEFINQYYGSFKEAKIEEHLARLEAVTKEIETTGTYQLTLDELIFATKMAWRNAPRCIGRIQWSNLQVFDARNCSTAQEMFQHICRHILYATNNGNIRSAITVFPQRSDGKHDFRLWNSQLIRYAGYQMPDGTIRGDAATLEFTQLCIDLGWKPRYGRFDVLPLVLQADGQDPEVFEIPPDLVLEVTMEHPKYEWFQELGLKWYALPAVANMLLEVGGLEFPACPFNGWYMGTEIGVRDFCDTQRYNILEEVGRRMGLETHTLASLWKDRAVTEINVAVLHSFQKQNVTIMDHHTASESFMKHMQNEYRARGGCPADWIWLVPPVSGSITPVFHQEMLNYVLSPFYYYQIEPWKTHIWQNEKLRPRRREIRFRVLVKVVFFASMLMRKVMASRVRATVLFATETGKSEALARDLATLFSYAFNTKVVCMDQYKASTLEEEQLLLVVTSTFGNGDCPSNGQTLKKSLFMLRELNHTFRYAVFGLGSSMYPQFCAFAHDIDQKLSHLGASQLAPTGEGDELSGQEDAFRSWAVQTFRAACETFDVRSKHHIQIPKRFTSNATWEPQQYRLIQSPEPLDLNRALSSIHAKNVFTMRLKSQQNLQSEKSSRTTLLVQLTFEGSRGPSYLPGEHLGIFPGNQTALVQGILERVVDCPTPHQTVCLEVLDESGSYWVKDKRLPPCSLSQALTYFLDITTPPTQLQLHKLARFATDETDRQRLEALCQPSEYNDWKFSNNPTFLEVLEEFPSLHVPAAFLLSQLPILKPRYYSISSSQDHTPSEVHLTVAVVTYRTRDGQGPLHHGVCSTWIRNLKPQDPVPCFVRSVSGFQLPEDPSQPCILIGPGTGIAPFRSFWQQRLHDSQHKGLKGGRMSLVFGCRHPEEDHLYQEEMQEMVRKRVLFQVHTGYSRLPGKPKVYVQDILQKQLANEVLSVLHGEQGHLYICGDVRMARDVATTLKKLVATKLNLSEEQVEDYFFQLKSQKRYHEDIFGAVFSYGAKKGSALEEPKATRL
Assay: Hemoglobin Assay
Conditions: pH 7.4
Method: The final volume was adjusted to 600 μL with 100 mM Hepes buffer (pH 7.4).

| Structure (SMILES) | IC50 [µM] | Ki [µM] |
| --- | --- | --- |
| CC(=N)NCCC[C@H](N)C(=O)O [(S)-5-Acetimidamido-2-aminopentanoic acid (4, L-NIO)] | 8.1 | – |
| CCC(=N)NCCC[C@H](N)C(=O)O [(S)-2-Amino-5-propionimidamidopentanoic acid (8)] | 16.1 | 7.25 |
| CC(C)(C)C(=N)NCCC[C@H](N)C(=O)O [(S)-2-Amino-5-pivalimidamidopentanoic acid (12)] | 323 | 146 |
| N=CNCCC[C@H](N)C(=O)O [(S)-2-Amino-5-formimidamidopentanoic acid (7)] | 0.4 | 0.18 |
| CC(C)C(=N)NCCC[C@H](N)C(=O)O [(S)-2-Amino-5-isobutyrimidamidopentanoic acid (10)] | 138 | 65.2 |
| CCCC(=N)NCCC[C@H](N)C(=O)O [(S)-2-Amino-5-butyrimidamidopentanoic acid (9)] | 19.1 | 8.61 |
